The values below come from patent publication US11045438B2, “Cysteine composition and injection” (Exela Sterile Medicines LLC, priority 2019, dated 2021).

One series can be described thus: physchem. The settings on record: 22 °C. The text has this: Cystine, a sulfur-sulfur dimer of cysteine, can form in the presence of oxygen (air) in cysteine solutions. Cystine, especially the free base, is several orders of magnitude less soluble in aqueous solutions than cysteine, and the solubility of cystine decreases as the pH increases.
The conditions of series [1]: cited from earlier work.
Setting [2] is: aqueous with cosolvent or surfactant or cyclodextrin.

Molecules are shown by their SMILES. In brackets after ≈: the same amount, converted by molar mass. Read-outs that look alike come from different tables or passages of the source.

For the molecule `N[C@@H](CSSC[C@H](N)C(=O)O)C(=O)O` [Cystine free Base, Cystine], the solubility – broadly, the dissolved amount per volume that the medium holds – is 590 µg/mL (≈ 2460 µM) in the series “physchem” (setting [2]), 140 µg/mL (≈ 583 µM) in the series “physchem” (water), “approximately 4 mg/mL” in series [1] (pH 1.0) and “approximately 1 mg/ml” in series [1] (pH 1.4).

As for `Cl.Cl.N[C@@H](CSSC[C@H](N)C(=O)O)C(=O)O` [Cystine Dihydrochloride], the solubility in the series “physchem” (setting [2]) stood at 9930 µg/mL; in “physchem” (water) it was 1040 µg/mL.

In turn, `N[C@@H](CS)C(=O)O` [Cysteine free base, Cysteine] had a solubility in the series “physchem” (water) of 18700 µg/mL (≈ 155000 µM).
